Laboratory results as given in ChEMBL document CHEMBL1201862, “PubChem BioAssay data set” (2004).
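Cultured in 96-well plates, cells were exposed to test compound for 48 hours across five concentrations. GI50 marks 50% less growth.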 Active and inactive are the calls of the source. Cut-off read from the data, not from the text of the source: active = GI50 up to about 1.1 µM and inactive = higher.

How the values were obtained:
Test in all cases: NCI anticancer screen, dose series, 48 h
[1] = test system: A549
[2] = test system: ACHN
[3] = test system: CAKI-1
[4] = test system: COLO 205
[5] = test system: DU-145
[6] = test system: HCC 2998
[7] = test system: HT-29
[8] = test system: K562
[9] = test system: KM12
[10] = test system: MCF7
[11] = test system: Malme-3M
[12] = test system: NCI-H522
[13] = test system: RXF 393
[14] = test system: SNB-19
[15] = test system: SR
[16] = test system: UO-31
[17] = test system: Hs-578T
[18] = test system: TK-10
[19] = test system: T47D

Measured: GI50

Nc1ccc2c3c1cccc3c(=O)n1c3ccc(Cc4ccc5c(c4)nc4c6ccc(N)c7cccc(c(=O)n54)c76)cc3nc21
inactive: [1] > 100 µM | [2] > 100 µM | [3] > 100 µM | [4] > 100 µM | [5] > 100 µM | [6] > 100 µM | [7] > 100 µM | [8] > 100 µM | [9] > 100 µM | [10] > 100 µM | [11] > 100 µM | [12] > 100 µM | [13] > 100 µM | [14] > 100 µM | [15] > 100 µM | [16] > 100 µM

COC(=O)C1=C(C(=O)OC)C(C(=O)c2ccc(Br)cc2)N2N=C(c3ccc(Cl)cc3)C=CC12 (stereo not drawn)
inactive: [1] 98.2 µM | [2] > 100 µM | [3] 80.7 µM | [4] > 100 µM | [5] > 100 µM | [6] > 100 µM | [17] > 100 µM | [8] > 100 µM | [9] 14.5 µM | [10] 82.8 µM | [11] > 100 µM | [12] 26.2 µM | [14] > 100 µM | [15] 40.6 µM | [18] > 100 µM | [16] > 100 µM

COC1(OC)C2(Cl)C(Cl)=C(Cl)C1(Cl)C1C=CC=CC12 (stereo not drawn)
inactive: [1] 69 µM | [2] > 100 µM | [3] 45.7 µM | [4] 69.8 µM | [6] 65.2 µM | [7] 47.8 µM | [8] 51.6 µM | [9] > 100 µM | [11] 31.6 µM | [12] 23.8 µM | [13] 82.4 µM | [14] > 100 µM | [15] > 100 µM | [18] > 100 µM | [16] > 100 µM

C=C1CC[C@H]2C(=O)OC(c3ccoc3)C[C@]2(C)C/C=C\C=C/1C(=O)OC (stereo partly drawn)
inactive: [1] > 25 µM | [2] > 25 µM | [3] > 25 µM | [4] > 25 µM | [6] > 25 µM | [7] > 25 µM | [17] > 25 µM | [8] > 25 µM | [9] > 25 µM | [10] > 25 µM | [11] > 25 µM | [13] > 25 µM | [14] > 25 µM | [18] > 25 µM | [16] 13.6 µM

CC(=O)NC(CC(C)C)C(=O)NC(CC(C)C)C(=O)NC(C=O)CCCNC(=N)N (stereo not drawn)
inactive: [1] > 100 µM | [2] > 100 µM | [3] > 100 µM | [4] > 100 µM | [5] > 100 µM | [6] > 100 µM | [7] > 100 µM | [8] > 100 µM | [9] > 100 µM | [10] > 100 µM | [11] 72.6 µM | [12] > 100 µM | [14] > 100 µM | [15] > 100 µM | [18] > 100 µM | [16] > 100 µM

C[C@H](c1ccccc1)N1C(=O)[C@@H](O)[C@H]1[C@H](CO)OCc1ccccc1
inactive: [1] > 100 µM | [2] > 100 µM | [4] > 100 µM | [5] > 100 µM | [7] > 100 µM | [17] > 100 µM | [8] > 100 µM | [9] > 100 µM | [10] > 100 µM | [11] > 100 µM | [14] > 100 µM | [15] > 100 µM | [18] > 100 µM | [16] > 100 µM

N=C(N)/N=C(\N)Nc1cnccn1
inactive: [1] > 100 µM | [2] > 100 µM | [3] > 100 µM | [4] > 100 µM | [5] > 100 µM | [6] > 100 µM | [7] > 100 µM | [8] > 100 µM | [9] > 100 µM | [10] > 100 µM | [11] > 100 µM | [12] > 100 µM | [13] > 100 µM | [14] > 100 µM | [19] > 100 µM | [18] > 100 µM | [16] > 100 µM

Cc1cccc2c1Oc1ccccc1C2NC(=O)c1ccc([N+](=O)[O-])cc1 (stereo not drawn)
inactive: [1] > 100 µM | [2] > 100 µM | [3] 69 µM | [5] 21 µM | [7] > 100 µM | [17] 29.4 µM | [8] > 100 µM | [9] > 100 µM | [11] 86.7 µM | [12] > 100 µM | [13] 23.7 µM | [14] > 100 µM | [15] > 100 µM | [19] > 100 µM | [18] > 100 µM | [16] > 100 µM

N#Cc1c(-c2ccc(Cl)cc2)c2c([nH]c1=O)-c1ccccc1SC2
inactive: [1] 30.3 µM | [3] 47.2 µM | [4] 22.3 µM | [5] > 100 µM | [7] 59.7 µM | [17] 67.9 µM | [8] 32.9 µM | [9] 63.7 µM | [10] 27.5 µM | [11] 33.1 µM | [13] 25.2 µM | [14] 91.8 µM | [15] 29.2 µM | [18] 16.2 µM | [16] 56.9 µM

c1cncc(-c2ncc3cccnc3n2)c1
inactive: [1] > 100 µM | [2] > 100 µM | [3] > 100 µM | [4] > 100 µM | [5] 43.4 µM | [6] > 100 µM | [7] > 100 µM | [17] > 100 µM | [8] > 100 µM | [9] > 100 µM | [10] > 100 µM | [11] > 100 µM | [12] > 100 µM | [13] > 100 µM | [14] > 100 µM | [18] > 100 µM | [16] > 100 µM

Nc1ccc2c(c1)C(=O)N1CCC[C@H]1C(=O)N2
inactive: [1] > 100 µM | [2] > 100 µM | [3] > 100 µM | [4] > 100 µM | [5] > 100 µM | [6] > 100 µM | [7] > 100 µM | [8] > 100 µM | [9] > 100 µM | [10] > 100 µM | [11] > 100 µM | [12] > 100 µM | [13] > 100 µM | [14] > 100 µM | [15] > 100 µM | [19] > 100 µM | [18] > 100 µM | [16] > 100 µM

CC1(C)CC(/C=C2/OC(=O)c3ccccc32)=C(C(N)=O)C(=O)O1
inactive: [1] > 100 µM | [3] > 100 µM | [4] 30.8 µM | [6] > 100 µM | [7] > 100 µM | [8] > 100 µM | [9] > 100 µM | [11] > 100 µM | [12] > 100 µM | [14] > 100 µM | [15] > 100 µM | [16] 83.9 µM

Cc1cn([C@H]2CN(O)C[C@@H](CO)O2)c(=O)[nH]c1=O
inactive: [1] > 100 µM | [2] > 100 µM | [3] > 100 µM | [4] > 100 µM | [5] > 100 µM | [6] > 100 µM | [17] > 100 µM | [8] > 100 µM | [9] > 100 µM | [10] > 100 µM | [13] > 100 µM | [14] > 100 µM | [19] > 100 µM | [18] > 100 µM | [16] > 100 µM

CC(N)Cc1ccc(C(=O)Cl)cc1 (stereo not drawn)
inactive: [1] > 100 µM | [2] > 100 µM | [3] > 100 µM | [4] > 100 µM | [6] > 100 µM | [7] > 100 µM | [8] > 100 µM | [9] > 100 µM | [11] > 100 µM | [12] > 100 µM | [13] > 100 µM | [18] > 100 µM

COC(=O)c1cc(C)ccc1/C=C1\Cc2cc(C)c(C)cc2C1=O
inactive: [1] > 100 µM | [2] > 100 µM | [3] > 100 µM | [5] > 100 µM | [6] > 100 µM | [7] > 100 µM | [17] 38.8 µM | [8] 89.3 µM | [9] > 100 µM | [11] > 100 µM | [12] > 100 µM | [13] 50.5 µM | [14] 29.9 µM | [15] > 100 µM | [19] > 100 µM | [18] > 100 µM | [16] > 100 µM

SC[C@@H]1COC[C@H](CS)S1
inactive: [1] > 100 µM | [4] > 100 µM | [5] > 100 µM | [6] > 100 µM | [7] > 100 µM | [8] > 100 µM | [9] > 100 µM | [10] > 100 µM | [12] > 100 µM | [14] > 100 µM | [15] > 100 µM | [19] > 100 µM | [18] > 100 µM | [16] > 100 µM

CN1C(=O)C2C3C=C4c5ccccc5N(c5ccccc5)C4(C2C1=O)[C@H]1C(=O)N(C)C(=O)[C@@H]31 (stereo partly drawn)
inactive: [1] > 100 µM | [2] > 100 µM | [4] > 100 µM | [6] > 100 µM | [7] > 100 µM | [8] > 100 µM | [9] > 100 µM | [11] > 100 µM | [12] > 100 µM | [14] > 100 µM | [15] > 100 µM | [18] > 100 µM | [16] > 100 µM
